Measured values taken from patent US8178506B2, “Oligomeric compounds and compositions for use in modulation of small non-coding RNAs” (Regulus Therapeutics Inc., priority 2003, dated 2012).
In the oligonucleotide strings, read from the 5' end, every base follows the letter of its sugar. An asterisk marks phosphorothioate; unmarked linkages are phosphodiester. Other units and linkages are bracketed, terminal groups are in braces. A string of capitals states the bases alone. e = 2'-O-(2-methoxyethyl) (MOE); [5mC] = 5-methylcytosine; d = 2'-deoxy (DNA)

What was measured:
Assay type in all cases: cell-based, human
[1] = tested on: aP2; test: aP2 mRNA expression in adipocytes (real-time PCR); details: for aP2 mRNA: Table 75
[2] = tested on: Glut4; test: Glut4 mRNA expression in adipocytes (real-time PCR)
[3] = tested on: PPARγ; test: PPARγ mRNA expression in adipocytes (real-time PCR)
[4] = tested on: HSL; test: HSL mRNA expression in adipocytes (real-time PCR)
[5] = tested on: adipocytes; test: Triglyceride accumulation assay in adipocytes
[6] = Table 17, differentiating adipocytes, control = treatment with ISIS 342673
[7] = differentiating adipocytes transfected with oligomeric compound
[8] = differentiating adipocytes transfected with oligomeric compound, Table 75

328135 (eA*e[5mC]*e[5mC]*eG*eA*eA*e[5mC]*eA*eA*eA*eG*eT*e[5mC]*eT*eG*eA*e[5mC]*eA*eG*eG*eA; anti-miR) [compound 328135]
AP2 mRNA [1, 6]: 80.6 percentage of control
aP2 mRNA [1, 7]: 34 percentage of untreated control (UTC)
GLUT4 mRNA [2, 6]: 90.3 percentage of control
GLUT4 mRNA [2, 8]: 19 percentage of untreated control (UTC)
PPAR gamma mRNA [3, 6]: 70.0 percentage of control
PPAR gamma mRNA [3, 8]: 33 percentage of untreated control (UTC)
HSL mRNA [4, 6]: 76.7 percentage of control
HSL mRNA [4, 8]: 20 percentage of untreated control (UTC)
TG (triglyceride accumulation) [5, 6]: 63.6 percentage of control
TG (triglyceride accumulation) [5, 8]: 29 percentage of untreated control (UTC)

328139 (eT*eA*e[5mC]*eT*eT*eT*eT*e[5mC]*eA*eT*eT*e[5mC]*e[5mC]*e[5mC]*e[5mC]*eT*e[5mC]*eA*e[5mC]*e[5mC]*eA; anti-miR) [compound 328139]
AP2 mRNA [1, 6]: 98.3 percentage of control
aP2 mRNA [1, 7]: 100 percentage of untreated control (UTC)
GLUT4 mRNA [2, 6]: 106.3 percentage of control
GLUT4 mRNA [2, 8]: 85 percentage of untreated control (UTC)
PPAR gamma mRNA [3, 6]: 115.0 percentage of control
PPAR gamma mRNA [3, 8]: 91 percentage of untreated control (UTC)
HSL mRNA [4, 6]: 92.6 percentage of control
HSL mRNA [4, 8]: 116 percentage of untreated control (UTC)
TG (triglyceride accumulation) [5, 6]: 89.1 percentage of control
TG (triglyceride accumulation) [5, 8]: 90 percentage of untreated control (UTC)

328340 (eT*eA*eA*eT*eA*dT*dA*dT*dA*dT*dT*dT*d[5mC]*dA*d[5mC]*eT*eA*e[5mC]*eG*e[5mC]) [compound 328340]
AP2 mRNA [1, 7]: 85 percentage of untreated control (UTC)
GLUT4 mRNA [2, 7]: 112 percentage of untreated control (UTC)
PPAR gamma mRNA [3, 7]: 110 percentage of untreated control (UTC)
HSL mRNA [4, 7]: 130 percentage of untreated control (UTC)
TG (triglyceride accumulation) [5, 7]: 76 percentage of untreated control (UTC)

340343 (antisense ACAGGAGUCUGAGCAUUUGA; all 2'-MOE, all phosphorothioate, methylation of C and T or U not given here) [compound 340343]
aP2 mRNA [1, 7]: 60 percentage of untreated control (UTC)
GLUT4 mRNA [2, 8]: 33 percentage of untreated control (UTC)
PPAR gamma mRNA [3, 8]: 59 percentage of untreated control (UTC)
HSL mRNA [4, 8]: 46 percentage of untreated control (UTC)
TG (triglyceride accumulation) [5, 8]: 35 percentage of untreated control (UTC)

340352 (antisense CACAAGAUCGGAUCUACGGGUU; all 2'-MOE, all phosphorothioate, methylation of C and T or U not given here) [compound 340352]
aP2 mRNA [1, 7]: 107 percentage of untreated control (UTC)
GLUT4 mRNA [2, 8]: 97 percentage of untreated control (UTC)
PPAR gamma mRNA [3, 8]: 102 percentage of untreated control (UTC)
HSL mRNA [4, 8]: 123 percentage of untreated control (UTC)
TG (triglyceride accumulation) [5, 8]: 110 percentage of untreated control (UTC)

340354 (antisense UCAGACCGAGACAAGUGCAAUG; all 2'-MOE, all phosphorothioate, methylation of C and T or U not given here) [compound 340354]
aP2 mRNA [1, 7]: 72 percentage of untreated control (UTC)
GLUT4 mRNA [2, 8]: 61 percentage of untreated control (UTC)
PPAR gamma mRNA [3, 8]: 74 percentage of untreated control (UTC)
HSL mRNA [4, 8]: 56 percentage of untreated control (UTC)
TG (triglyceride accumulation) [5, 8]: 64 percentage of untreated control (UTC)

340356 (antisense CUCAAUAGACUGUGAGCUCCUU; all 2'-MOE, all phosphorothioate, methylation of C and T or U not given here) [compound 340356]
aP2 mRNA [1, 7]: 73 percentage of untreated control (UTC)
GLUT4 mRNA [2, 8]: 54 percentage of untreated control (UTC)
PPAR gamma mRNA [3, 8]: 62 percentage of untreated control (UTC)
HSL mRNA [4, 8]: 59 percentage of untreated control (UTC)
TG (triglyceride accumulation) [5, 8]: 43 percentage of untreated control (UTC)

340358 (antisense CAGCUAUGCCAGCAUCUUGCC; all 2'-MOE, all phosphorothioate, methylation of C and T or U not given here) [compound 340358]
aP2 mRNA [1, 7]: 47 percentage of untreated control (UTC)
GLUT4 mRNA [2, 8]: 21 percentage of untreated control (UTC)
PPAR gamma mRNA [3, 8]: 42 percentage of untreated control (UTC)
HSL mRNA [4, 8]: 24 percentage of untreated control (UTC)
TG (triglyceride accumulation) [5, 8]: 23 percentage of untreated control (UTC)

340360 (antisense GCAACUUAGUAAUGUGCAAUA; all 2'-MOE, all phosphorothioate, methylation of C and T or U not given here) [compound 340360]
aP2 mRNA [1, 7]: 102 percentage of untreated control (UTC)
GLUT4 mRNA [2, 8]: 91 percentage of untreated control (UTC)
PPAR gamma mRNA [3, 8]: 96 percentage of untreated control (UTC)
HSL mRNA [4, 8]: 102 percentage of untreated control (UTC)
TG (triglyceride accumulation) [5, 8]: 106 percentage of untreated control (UTC)

341791 (antisense GCUUCCAGUCGAGGAUGUUUACA; all 2'-MOE, all phosphorothioate, methylation of C and T or U not given here) [compound 341791]
aP2 mRNA [1, 7]: 80 percentage of untreated control (UTC)
GLUT4 mRNA [2, 8]: 47 percentage of untreated control (UTC)
PPAR gamma mRNA [3, 8]: 75 percentage of untreated control (UTC)
HSL mRNA [4, 8]: 72 percentage of untreated control (UTC)
TG (triglyceride accumulation) [5, 8]: 50 percentage of untreated control (UTC)

341795 (antisense AACCAAUGUGCAGACUACUGUA; all 2'-MOE, all phosphorothioate, methylation of C and T or U not given here) [compound 341795]
aP2 mRNA [1, 7]: 76 percentage of untreated control (UTC)
GLUT4 mRNA [2, 8]: 55 percentage of untreated control (UTC)
PPAR gamma mRNA [3, 8]: 74 percentage of untreated control (UTC)
HSL mRNA [4, 8]: 74 percentage of untreated control (UTC)
TG (triglyceride accumulation) [5, 8]: 57 percentage of untreated control (UTC)

341796 (antisense UCAUACAGCUAGAUAACCAAAGA; all 2'-MOE, all phosphorothioate, methylation of C and T or U not given here) [compound 341796]
aP2 mRNA [1, 7]: 74 percentage of untreated control (UTC)
GLUT4 mRNA [2, 8]: 58 percentage of untreated control (UTC)
PPAR gamma mRNA [3, 8]: 66 percentage of untreated control (UTC)
HSL mRNA [4, 8]: 67 percentage of untreated control (UTC)
TG (triglyceride accumulation) [5, 8]: 59 percentage of untreated control (UTC)

341797 (antisense ACAAGUGCCUUCACUGCAGU; all 2'-MOE, all phosphorothioate, methylation of C and T or U not given here) [compound 341797]
aP2 mRNA [1, 7]: 45 percentage of untreated control (UTC)
GLUT4 mRNA [2, 8]: 17 percentage of untreated control (UTC)
PPAR gamma mRNA [3, 8]: 50 percentage of untreated control (UTC)
HSL mRNA [4, 8]: 29 percentage of untreated control (UTC)
TG (triglyceride accumulation) [5, 8]: 20 percentage of untreated control (UTC)

341798 (antisense GCAUUAUUACUCACGGUACGA; all 2'-MOE, all phosphorothioate, methylation of C and T or U not given here) [compound 341798]
aP2 mRNA [1, 7]: 84 percentage of untreated control (UTC)
GLUT4 mRNA [2, 8]: 55 percentage of untreated control (UTC)
PPAR gamma mRNA [3, 8]: 70 percentage of untreated control (UTC)
HSL mRNA [4, 8]: 77 percentage of untreated control (UTC)
TG (triglyceride accumulation) [5, 8]: 62 percentage of untreated control (UTC)

341799 (antisense ACCUAAUAUAUCAAACAUAUCA; all 2'-MOE, all phosphorothioate, methylation of C and T or U not given here) [compound 341799]
aP2 mRNA [1, 7]: 101 percentage of untreated control (UTC)
GLUT4 mRNA [2, 8]: 89 percentage of untreated control (UTC)
PPAR gamma mRNA [3, 8]: 89 percentage of untreated control (UTC)
HSL mRNA [4, 8]: 103 percentage of untreated control (UTC)
TG (triglyceride accumulation) [5, 8]: 98 percentage of untreated control (UTC)

344268 (antisense ACACAAAUUCGGUUCUACAGGG; all 2'-MOE, all phosphorothioate, methylation of C and T or U not given here) [compound 344268]
aP2 mRNA [1, 7]: 46 percentage of untreated control (UTC)
GLUT4 mRNA [2, 8]: 22 percentage of untreated control (UTC)
PPAR gamma mRNA [3, 8]: 53 percentage of untreated control (UTC)
HSL mRNA [4, 8]: 44 percentage of untreated control (UTC)
TG (triglyceride accumulation) [5, 8]: 57 percentage of untreated control (UTC)

344269 (antisense UAACCGAUUUCAAAUGGUGCUA; all 2'-MOE, all phosphorothioate, methylation of C and T or U not given here) [compound 344269]
aP2 mRNA [1, 7]: 41 percentage of untreated control (UTC)
GLUT4 mRNA [2, 8]: 28 percentage of untreated control (UTC)
PPAR gamma mRNA [3, 8]: 48 percentage of untreated control (UTC)
HSL mRNA [4, 8]: 35 percentage of untreated control (UTC)
TG (triglyceride accumulation) [5, 8]: 42 percentage of untreated control (UTC)

344275 (antisense UCUAGUGGUCCUAAACAUUUCA; all 2'-MOE, all phosphorothioate, methylation of C and T or U not given here) [compound 344275]
aP2 mRNA [1, 7]: 36 percentage of untreated control (UTC)
GLUT4 mRNA [2, 8]: 21 percentage of untreated control (UTC)
PPAR gamma mRNA [3, 8]: 46 percentage of untreated control (UTC)
HSL mRNA [4, 8]: 39 percentage of untreated control (UTC)
TG (triglyceride accumulation) [5, 8]: 36 percentage of untreated control (UTC)
